Literature values, collected in paper PMC11609630 (Cancer Discovery, 2024).

Tested on: patients with TNBC

sacituzumab govitecan: TROP2-targeting antibody–drug conjugate
gain in ORR compared with chemotherapy (cohort of relapsed patients with TNBC): 30%
patients experiencing adverse events of grade 3 or higher (such as neutropenia and leukopenia): more than 50%
